The term Kd denotes a measure of binding affinity in units of concentration.

Each structure is given as a SMILES string. Where a SMILES comes first, the peptide text is derived from it. [ ]: non-standard residue; d: D form. The star is where a group is joined. ξ: configuration not given here. FITC = O=C1OC2(c3ccc(O)cc3Oc3cc(O)ccc32)c2ccc(NC(=S)*)cc21; Phe(4-NO2) = N[C@@H](Cc1ccc([N+](=O)[O-])cc1)C(=O)O; ξAla(4-thiazolyl) = NC(Cc1cscn1)C(=O)O; pS = N[C@@H](COP(=O)(O)O)C(=O)O; β3hS = N[C@@H](CO)CC(=O)O; Nva = CCC[C@H](N)C(=O)O; βAla = NCCC(=O)O

The source of these data is article PMC9667936, “Functional mapping of the 14-3-3 hub protein as a guide to design 14-3-3 molecular glues” (Chemical Science, 2022).

The test addresses T1, 14-3-3γ (Homo sapiens, UniProt P61981).
T1 construct: made in house; host or cells: E. coli NiCo21 (DE3)
T1 sequence (P61981 1-247): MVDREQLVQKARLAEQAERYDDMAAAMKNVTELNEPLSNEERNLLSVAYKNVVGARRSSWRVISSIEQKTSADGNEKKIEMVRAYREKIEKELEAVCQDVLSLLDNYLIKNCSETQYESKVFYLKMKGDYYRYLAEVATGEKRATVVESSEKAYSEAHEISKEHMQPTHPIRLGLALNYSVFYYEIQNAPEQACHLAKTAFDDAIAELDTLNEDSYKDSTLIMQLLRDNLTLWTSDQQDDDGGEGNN
Kind of test: Fluorescence anisotropy (FA) binary binding study: 14-3-3 titrated to fluorescein-labelled peptide. The settings on record: for Affinity Kd / Kd: Table S4, point-mutated peptides; for Affinity Kd: 10 nM FITC-labelled peptide; for Kd: 14-3-3 titrated to 10 nM FITC-labelled peptide, HEPES pH 7.4, room temperature, 4PL fit, read-out: Affinity Kd. On the procedure: 14-3-3γ protein expression (FP/ITC experiments)
(§1) A pPROEX HTb expression vector encoding the human 14-3-3 protein gamma (14-3-3γ) with an N-terminal his6-tag was transformed by heat shock into NiCo21 (DE3) competent cells. Single colonies were cultured in 50 mL LB medium (100 µg/mL ampicillin). After overnight incubation at 37 °C, cultures were transferred to 2 L TB media (100 µg/mL ampicillin, 1 mM MgCl2) and incubated at 37 °C until an OD600 nm of 0.8-1.2 was reached. Protein expression was then induced with 0.4 mM isopropyl-β-d-thiogalactoside (IPTG), and cultures were incubated overnight at 18 °C. Cells were harvested by centrifugation (8600 rpm, 20 minutes, 4 °C) and resuspended in lysis buffer (50 mM Hepes, pH 8.0, 300 mM NaCl, 12.5 mM imidazole, 5 mM MgCl2, 2 mM βME) containing cOmplete™ EDTA-free Protease Inhibitor Cocktail tablets (1 tablet/100 ml lysate) and benzonase (1 µl/100 ml). After lysis using a C3 Emulsiflex-C3 homogenizer (Avestin), the cell lysate was cleared by centrifugation (20000 rpm, 30 minutes, 4 °C) and purified using Ni2+-affinity chromatography (Ni-NTA superflow cartridges, Qiagen).
Typically two 5 mL columns (flow 5 mL/min) were used for a 2 L culture in which the lysate was loaded on the column washed with 10 CV wash buffer (50 mM Hepes, pH 8.0, 300 mM NaCl, 25 mM imidazole, 2 mM βME) and eluted in several fractions (2-4 CV) of elution buffer (50 mM Hepes, pH 8.0, 300 mM NaCl, 250 mM imidazole, 2 mM βME). Fractions containing the 14-3-3 protein were combined and dialyzed into 25 mM HEPES pH 8.0, 100 mM NaCl, 10 mM MgCl2, 500 µM TCEP. Finally, the protein was concentrated to ∼60 mg/mL, analyzed Q-Tof LC/MS, and aliquots were flash-frozen for storage at […]
as §1, with “sigma truncated after T231 (14-3-3σΔc) and” for “gamma (14-3-3γ)”, “tablet/ 100” for “tablet/100”, “µl/ 100” for “µl/100”, “ml).” for “ml). After lysis using a C3 Emulsiflex-C3 homogenizer (Avestin), the cell lysate was cleared by centrifugation (20000 rpm, 30 minutes, 4 °C) and purified using Ni2+-affinity chromatography (Ni-NTA superflow cartridges, Qiagen).”
After lysis using a C3 Emulsiflex-C3 homogenizer (Avestin), the cell lysate was cleared by centrifugation (20000 rpm, 30 minutes, 4 °C) and purified using Ni2+-affinity chromatography (Ni-NTA superflow cartridges, Qiagen). Typically two 5 mL columns were used for a 2 L culture in which the lysate was loaded on the column washed with 10 CV wash buffer (50 mM Hepes, pH 8.0, 300 mM NaCl, 25 mM imidazole, 2 mM βME) and eluted with several fractions (2-4 CV) of elution buffer (50 mM Hepes, pH 8.0, 300 mM NaCl, 250 mM imidazole, 2 mM βME). Fractions containing the 14-3-3 protein were combined and dialyzed into 25 mM HEPES pH 8.0, 200 mM NaCl, 10 mM MgCl2, 2 mM βME. In addition, 1 mg TEV was added for each 100 mg purified protein to remove the purification tag. The cleaved sample was then again loaded on a 10 mL Ni-NTA column to separate the cleaved product from the expression tag and residual uncleaved protein. The flowthrough was loaded on a Superdex 75 pg 16/60 size exclusion column (GE Life Sciences) using 25 mM HEPES, 100 mM NaCl, 10 mM MgCl2, 500 μM TCEP (adjusted to pH=8.0) as running buffer. Fractions containing the 14-3-3 protein were pooled and concentrated to ∼60 mg/mL, analyzed Q-Tof LC/MS, and aliquots were flash-frozen for storage at −80 […]
The peptides 1 and 2a-d were synthesized on 50 µmol scale on a Rink amide MBHA resin […]

Setting [1] is: Table S4, FA Kd / Kd of 1, replicate 1.
[2] abbreviates: Table S4, FA Kd / Kd of 1, replicate 2.
[3] abbreviates: Table S4, FA Kd / Kd of 1, replicate 3.
Where [4] appears, read: Table S4, FA Kd of peptide divided by Kd of 1, mean of n = 3.
The mark [5] stands for this setting: Table S4, calculated from FA Kd, mean of n = 3.
[6] abbreviates: Table S4, from FA Kd, replicate 1.
Where [7] appears, read: Table S4, from FA Kd, replicate 2.
Setting [8] is: Table S4, from FA Kd, replicate 3.
[9] abbreviates: Table S4, ΔG minus ΔG of 1, FA, replicate 1.
Where [10] appears, read: Table S4, ΔG minus ΔG of 1, FA, replicate 2.
Where [11] appears, read: Table S4, ΔG minus ΔG of 1, FA, replicate 3.
Setting [12] is: Table S4, ΔG of peptide minus ΔG of 1, FA, mean of n = 3.

Regarding `CCC[C@H](NC(=O)[C@H](N)CCCCN)C(=O)N[C@@H](Cc1ccc([N+](=O)[O-])cc1)C(=O)NC(Cc1cscn1)C(=O)N[C@@H](COP(=O)(O)O)C(=O)N[C@@H](C)C(=O)N[C@@H](CO)CC(=O)NCCC(=O)N[C@@H](Cc1ccc([N+](=O)[O-])cc1)C(=O)N[C@@H](CCCCN)C(N)=O` (stereo partly drawn) [4c] (H-[dK][Nva][Phe(4-NO2)][ξAla(4-thiazolyl)][pS]A[β3hS][βAla][Phe(4-NO2)]K-NH2; N-terminus and C-terminus assumed), the “ΔΔG of point mutation (FA)” value (FA, relative to 1, mean ± SD, SD) worked out at 1.8 ± 0.1 kcal/mol. Further, the “Affinity Kd” value stood at 1.2 µM (FA, replicate 1); 1.2 µM (FA, replicate 2); 1.6 µM (FA, replicate 3). The Kd (FA, mean of n = 3) was 1.3 µM. For the same compound, the “Fold change to 1” value was determined as 24.0 under setting [1], 17.0 under setting [2], 21.3 under setting [3] and 20.8 under setting [4]. Moreover, the ΔG is, setting by setting: under setting [5], -8.0 kcal/mol; under setting [6], -8.1 kcal/mol; under setting [7], -8.1 kcal/mol; under setting [8], -7.9 kcal/mol. Moreover, the “ΔΔG to 1” value is given as 1.9 kcal/mol under setting [9], 1.7 kcal/mol under setting [10], 1.8 kcal/mol under setting [11] and 1.8 kcal/mol under setting [12].

Consider `C[C@H](NC(=O)[C@H](CCCCN)NC(=O)[C@H](Cc1ccc([N+](=O)[O-])cc1)NC(=O)CCNC(=O)C[C@H](CO)NC(=O)[C@H](Cc1ccc([N+](=O)[O-])cc1)NC(=O)[C@@H](N)COP(=O)(O)O)C(=O)N[C@@H](CCCCNC(=S)Nc1ccc2c(c1)C(=O)OC21c2ccc(O)cc2Oc2cc(O)ccc21)C(N)=O` [2d] (H-[pS][Phe(4-NO2)][β3hS][βAla][Phe(4-NO2)]KAK(FITC)-NH2), for which, where the note is “FA KD relative to the previous (one amino acid longer) peptide”, the “fold change in binding affinity on truncation” value was 43 fold. Further, for the setting “FA, relative to peptide 1 (2d: entire N-terminus; 2i: entire C-terminus)”, the “cumulative ΔΔG of truncating the entire N- or C-terminus” value is 2.9 kcal/mol. The “individual ΔΔG of removed residue” value (FA, ΔG relative to the previously truncated peptide) came out at 2.2 kcal/mol. Also, the “ΔΔG N-term (cumulative, whole N-terminus removed)” value (Table S2, N-term = 2d relative to 1, FA, mean of n = 3) is 2,86 kcal/mol. The “ΔΔG N-term (cumulative)” value is 2,88 kcal/mol (Table S2, N-term = 2d relative to 1, FA, replicate 1); 2,94 kcal/mol (Table S2, N-term = 2d relative to 1, FA, replicate 2); 2,75 kcal/mol (Table S2, N-term = 2d relative to 1, FA, replicate 3). In addition, the “Fold change to previous” value (Table S2, FA KD of peptide divided by KD of previous (one amino acid longer) peptide, mean of n = 3) is 43,23; the “Fold change to previous” value (Table S2, KD / KD of previous (one amino acid longer) peptide, replicate 1) was 40,69; the “Fold change to previous” value (Table S2, KD / KD of previous (one amino acid longer) peptide, replicate 2) was 45,81; the “Fold change to previous” value (Table S2, KD / KD of previous (one amino acid longer) peptide, replicate 3) is 43,18. Besides, the ΔG is, setting by setting: (Table S2, calculated from FA KD, mean of n = 3) -7,67 kcal/mol; (Table S2, from FA KD, replicate 1) -7,74 kcal/mol; (Table S2, from FA KD, replicate 2) -7,61 kcal/mol; (Table S2, from FA KD, replicate 3) -7,65 kcal/mol. The ΔΔG (to previous) (Table S2, ΔG minus ΔG of previous peptide, FA, replicate 1) is reported as 2,19 kcal/mol; the ΔΔG (to previous) (Table S2, ΔG minus ΔG of previous peptide, FA, replicate 2) is 2,26 kcal/mol; the ΔΔG (to previous) (Table S2, ΔG minus ΔG of previous peptide, FA, replicate 3) is on record as 2,23 kcal/mol; the ΔΔG (to previous) (Table S2, ΔG of peptide minus ΔG of previous (one amino acid longer) peptide, FA, mean of n = 3) is 2,23 kcal/mol.

As for `CCC[C@H](NC(=O)[C@H](N)CCCCN)C(=O)N[C@@H](Cc1ccc([N+](=O)[O-])cc1)C(=O)NC(Cc1cscn1)C(=O)N[C@@H](COP(=O)(O)O)C(=O)N[C@@H](Cc1ccc([N+](=O)[O-])cc1)C(=O)N[C@@H](CO)CC(=O)NCCC(=O)N[C@@H](Cc1ccccc1)C(=O)N[C@@H](CCCCN)C(N)=O` (stereo partly drawn) [5b] (H-[dK][Nva][Phe(4-NO2)][ξAla(4-thiazolyl)][pS][Phe(4-NO2)][β3hS][βAla]FK-NH2; N-terminus and C-terminus assumed), the “Affinity Kd” value reads like this: (FA, replicate 1) 1.3 µM; (FA, replicate 2) 1.2 µM; (FA, replicate 3) 1.8 µM. Also, the Kd (FA, mean of n = 3) came out at 1.4 µM. Moreover, the “Fold change to 1” value reads like this: under setting [1], 24.3; under setting [2], 16.9; under setting [3], 24.9; under setting [4], 22.0. Moreover, the ΔG under setting [5] is -8.0 kcal/mol, the ΔG under setting [6] is on record as -8.0 kcal/mol, the ΔG under setting [7] is reported as -8.1 kcal/mol and the ΔG under setting [8] was -7.8 kcal/mol. The “ΔΔG to 1” value amounted to 1.9 kcal/mol under setting [9], 1.7 kcal/mol under setting [10], 1.9 kcal/mol under setting [11] and 1.8 kcal/mol under setting [12].
